# Measured values: US20150051206A1, “COMPOUNDS AND COMPOSITIONS AS C-KIT KINASE INHIBITORS” (IRM LLC, priority 2011, published 2015)
# Target: T1, c-kit (Homo sapiens, UniProt P10721)
# T1 construct: human Mo7e cells which endogenously express c-kit; endogenous in cells; host or cells: human Mo7e cells (promegakaryocytic leukemia line), stimulated with human recombinant SCF
# Test: Mo7e cell proliferation assay (SCF dependent proliferation)
# Format: cell-based
# Conditions: Table 1; Mo7e cells stimulated with human recombinant SCF, 48 hours; 1% FBS
# Experimental: Compounds of Formula (I) and Formula (II) provided herein were assayed to measure their capacity to inhibit c-kit and PDGFR kinases using the appropriate assay described below: c-Kit inhibition was evaluated using the Mo7e cell proliferation assay, and PDGFR inhibition was evaluated using the Rat A10 cell proliferation assay and the Human TG/HA-VSMC cell proliferation assay.
# The compounds of Table 1 and Table 2 were tested for inhibition of SCF dependent proliferation using human Mo7e cells which endogenously express c-kit in a 384 well format. […] After 48 hours of incubation at 37° C., cell viability was measured by adding 25 uL of CellTiter Glo (Promega) to the cells and the luminescence was measured by a CLIPR CCD camera (Molecular Devices).
# The IC50 value is given as that concentration of the test compound in question that provoke a response halfway between the baseline and maximum responses.
# T1 sequence (P10721 26-976): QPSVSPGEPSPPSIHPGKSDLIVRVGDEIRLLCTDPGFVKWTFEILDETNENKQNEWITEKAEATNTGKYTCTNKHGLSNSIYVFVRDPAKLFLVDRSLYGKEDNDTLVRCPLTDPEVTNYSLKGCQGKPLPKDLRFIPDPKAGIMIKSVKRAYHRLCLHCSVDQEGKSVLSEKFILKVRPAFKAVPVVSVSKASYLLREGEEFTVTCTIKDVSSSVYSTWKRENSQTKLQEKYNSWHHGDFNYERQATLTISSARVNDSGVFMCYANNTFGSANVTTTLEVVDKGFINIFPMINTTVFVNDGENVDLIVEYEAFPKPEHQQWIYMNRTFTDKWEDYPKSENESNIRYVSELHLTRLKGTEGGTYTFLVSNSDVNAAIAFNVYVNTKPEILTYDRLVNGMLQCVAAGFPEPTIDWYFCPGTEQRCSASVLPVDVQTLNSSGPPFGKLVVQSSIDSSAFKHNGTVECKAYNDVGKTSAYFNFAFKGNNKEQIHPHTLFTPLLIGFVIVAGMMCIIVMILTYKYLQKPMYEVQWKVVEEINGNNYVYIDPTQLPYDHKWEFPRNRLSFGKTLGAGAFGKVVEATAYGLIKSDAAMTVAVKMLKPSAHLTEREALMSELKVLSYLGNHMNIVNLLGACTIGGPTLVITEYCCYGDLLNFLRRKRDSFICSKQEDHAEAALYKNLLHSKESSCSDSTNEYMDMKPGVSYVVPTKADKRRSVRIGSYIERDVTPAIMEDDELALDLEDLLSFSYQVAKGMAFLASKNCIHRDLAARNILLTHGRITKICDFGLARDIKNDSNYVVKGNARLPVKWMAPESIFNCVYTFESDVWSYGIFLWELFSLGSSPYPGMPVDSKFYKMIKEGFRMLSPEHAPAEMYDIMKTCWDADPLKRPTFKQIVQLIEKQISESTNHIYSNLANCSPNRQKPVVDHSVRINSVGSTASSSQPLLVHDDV
row,SMILES,IC50 [nM]
1,"Cc1ccc(Nc2noc(-c3cnccn3)n2)cc1NC(=O)c1cnc2ccccn12 [F18, N-(2-methyl-5-{[5-(pyrazin-2-yl)-1,2,4-oxadiazol-3-yl]amino}phenyl)imidazo[1,2-a]pyridine-3-carboxamide]",9
2,"Cc1ccc(Nc2noc(-c3nccn3C)n2)cc1NC(=O)c1cnc2ccccn12 [F16, N-(2-methyl-5-{[5-(1-methyl-1H-imidazol-2-yl)-1,2,4-oxadiazol-3-yl]amino}phenyl)imidazo[1,2-a]pyridine-3-carboxamide]",27
3,"Cc1ccc(-c2nc(Nc3ccc(C)c(NC(=O)c4cnc5ccccn45)c3)no2)cn1 [F17, N-(2-methyl-5-{[5-(6-methylpyridin-3-yl)-1,2,4-oxadiazol-3-yl]amino}phenyl)imidazo[1,2-a]pyridine-3-carboxamide]",2
4,"Cc1ccnc(-c2noc(-c3ccc(C)c(NC(=O)c4cnc5ccccn45)c3)n2)c1 [F10, N-{2-methyl-5-[3-(4-methylpyridin-2-yl)-1,2,4-oxadiazol-5-yl]phenyl}imidazo[1,2-a]pyridine-3-carboxamide]",24

# Other lines, results leading:
row,IC50 [nM],SMILES
1,61,"Cc1nc(C(F)(F)F)c(-c2nc(-c3ccc(C)c(NC(=O)c4cnc5ccccn45)c3)no2)s1 [F23, N-(2-methyl-5-{5-[2-methyl-4-(trifluoromethyl)-1,3-thiazol-5-yl]-1,2,4-oxadiazol-3-yl}phenyl)imidazo[1,2-a]pyridine-3-carboxamide]"
2,69,"Cc1ccc(-c2nc(-c3cccc(C(F)(F)F)c3)no2)cc1NC(=O)c1cnc2ccccn12 [F7, N-(2-methyl-5-{3-[3-(trifluoromethyl)phenyl]-1,2,4-oxadiazol-5-yl}phenyl)imidazo[1,2-a]pyridine-3-carboxamide]"
3,9,"Cc1ccc(-c2nc(Cc3ccccc3F)no2)cc1NC(=O)c1cnc2ccccn12 [F9, N-(5-{3-[(2-fluorophenyl)methyl]-1,2,4-oxadiazol-5-yl}-2-methylphenyl)imidazo[1,2-a]pyridine-3-carboxamide]"

# Same assay, conditions: Table 1; Mo7e cells stimulated with human recombinant SCF, 48 hours; 20% FBS (values marked *)
row,IC50 [nM],SMILES
1,65,"Cc1ccc(-c2nc(Cc3ccccc3)no2)cc1NC(=O)c1cnc2ccccn12 [F3, N-[5-(3-benzyl-1,2,4-oxadiazol-5-yl)-2-methylphenyl]imidazo[1,2-a]pyridine-3-carboxamide]"

# Same assay, conditions: Table 2; Mo7e cells stimulated with human recombinant SCF, 48 hours; 1% FBS
row,SMILES,IC50 [nM]
1,"Cc1ccc(-c2noc(-c3ccccn3)n2)cc1NC(=O)c1cnc2ccccn12 [F42, N-{2-methyl-5-[5-(pyridin-2-yl)-1,2,4-oxadiazol-3-yl]phenyl}imidazo[1,2-a]pyridine-3-carboxamide]",105
2,"Cc1ccc(-c2noc(CCn3cncn3)n2)cc1NC(=O)c1cnc2ccccn12 [F58, N-(2-methyl-5-{5-[2-(1H-1,2,4-triazol-1-yl)ethyl]-1,2,4-oxadiazol-3-yl}phenyl)imidazo[1,2-a]pyridine-3-carboxamide]",135
3,"Cc1ccc(Nc2noc(-c3cccnn3)n2)cc1NC(=O)c1cnc2ccccn12 [F64, N-(2-methyl-5-{[5-(pyridazin-3-yl)-1,2,4-oxadiazol-3-yl]amino}phenyl)imidazo[1,2-a]pyridine-3-carboxamide]",115
4,"Cc1ccc(-c2noc(-c3cccc(N4CCN(C)CC4)c3)n2)cc1NC(=O)c1cnc2ccccn12 [F53, N-(2-methyl-5-{5-[3-(4-methylpiperazin-1-yl)phenyl]-1,2,4-oxadiazol-3-yl}phenyl)imidazo[1,2-a]pyridine-3-carboxamide]",101
5,"Cc1ccc(-c2noc(Cn3cnnn3)n2)cc1NC(=O)c1cnc2ccccn12 [F59, N-{2-methyl-5-[5-(1H-1,2,3,4-tetrazol-1-ylmethyl)-1,2,4-oxadiazol-3-yl]phenyl}imidazo[1,2-a]pyridine-3-carboxamide]",646
6,Cc1ccc(-c2noc(CCc3nn[nH]n3)n2)cc1NC(=O)c1cnc2ccccn12 [F67],> 10000
7,"Cc1ccc(-c2noc(-c3ccccc3N3CCN(C)CC3)n2)cc1NC(=O)c1cnc2ccccn12 [F52, N-(2-methyl-5-{5-[2-(4-methylpiperazin-1-yl)phenyl]-1,2,4-oxadiazol-3-yl}phenyl)imidazo[1,2-a]pyridine-3-carboxamide]",433

# Continued, values first:
row,IC50 [nM],SMILES
1,> 10000,Cc1ccc(-c2nc(-c3cccnc3)no2)cc1NC(=O)c1cnc2ccccn12 [F71]
2,> 10000,Cc1ccc(-c2nc(-c3ccc(F)cc3)no2)cc1NC(=O)c1cnc2ccccn12 [F68]
3,> 10000,Cc1ccc(-c2noc(-c3ccc(C)c(NC(=O)c4cnc5ccccn45)c3)n2)cc1F [F69]
4,137,"Cc1ccc(-c2nc(-c3ccccn3)no2)cc1NC(=O)c1cnc2ccccn12 [F24, N-(2-methyl-5-(3-(pyridin-2-yl)-1,2,4-oxadiazol-5-yl)phenyl)imidazo[1,2-a]pyridine-3-carboxamide]"
5,> 10000,Cc1ccc(-c2nc(-c3ccc(OC(F)(F)F)cc3)no2)cc1NC(=O)c1cnc2ccccn12 [F72]
6,1040,"Cc1ccc(-c2nc(-c3ccc(C(F)(F)F)cc3)no2)cc1NC(=O)c1cnc2ccccn12 [F31, N-(2-methyl-5-{3-[4-(trifluoromethyl)phenyl]-1,2,4-oxadiazol-5-yl}phenyl)imidazo[1,2-a]pyridine-3-carboxamide]"

# Same assay, conditions: Table 2; Mo7e cells stimulated with human recombinant SCF, 48 hours; 20% FBS instead of 1% FBS (values marked *)
row,SMILES,IC50 [nM]
1,"COc1ccccc1Cc1noc(-c2ccc(C)c(NC(=O)c3cnc4ccccn34)c2)n1 [F45, N-(5-{3-[(2-methoxyphenyl)methyl]-1,2,4-oxadiazol-5-yl}-2-methylphenyl)imidazo[1,2-a]pyridine-3-carboxamide]",116
2,"Cc1ccc(-c2nc(COc3ccccc3)no2)cc1NC(=O)c1cnc2ccccn12 [F32, N-{2-methyl-5-[3-(phenoxymethyl)-1,2,4-oxadiazol-5-yl]phenyl}imidazo[1,2-a]pyridine-3-carboxamide]",249

# Results, then the molecule that gave them:
row,IC50 [nM],SMILES
1,274,"Cc1ccc(-c2nc(-c3ccc(Cl)cc3)no2)cc1NC(=O)c1cnc2ccccn12 [F27, N-{5-[3-(4-chlorophenyl)-1,2,4-oxadiazol-5-yl]-2-methylphenyl}imidazo[1,2-a]pyridine-3-carboxamide]"
2,330,"Cc1ccc(-c2noc(-c3cccc(N4CCOCC4)c3)n2)cc1NC(=O)c1cnc2ccccn12 [F55, N-(2-methyl-5-{5-[3-(morpholin-4-yl)phenyl]-1,2,4-oxadiazol-3-yl}phenyl)imidazo[1,2-a]pyridine-3-carboxamide]"
3,424,"Cc1ccc(-c2nc(-c3cnccn3)no2)cc1NC(=O)c1cnc2ccccn12 [F25, N-{2-methyl-5-[3-(pyrazin-2-yl)-1,2,4-oxadiazol-5-yl]phenyl}imidazo[1,2-a]pyridine-3-carboxamide]"
4,845,"Cc1ccc(-c2nc(-c3c(Cl)cccc3Cl)no2)cc1NC(=O)c1cnc2ccccn12 [F26, N-{5-[3-(2,6-dichlorophenyl)-1,2,4-oxadiazol-5-yl]-2-methylphenyl}imidazo[1,2-a]pyridine-3-carboxamide]"
5,104,"Cc1ccc(F)c(-c2noc(-c3ccc(C)c(NC(=O)c4cnc5ccccn45)c3)n2)c1 [F39, N-{5-[3-(2-fluoro-5-methylphenyl)-1,2,4-oxadiazol-5-yl]-2-methylphenyl}imidazo[1,2-a]pyridine-3-carboxamide]"
6,265,"COc1ccnc(-c2noc(-c3ccc(C)c(NC(=O)c4cnc5ccccn45)c3)n2)c1 [F33, N-{5-[3-(4-methoxypyridin-2-yl)-1,2,4-oxadiazol-5-yl]-2-methylphenyl}imidazo[1,2-a]pyridine-3-carboxamide]"
